Laboratory results from ChEMBL document CHEMBL1275540, “Plasmid-mediated quinolone resistance determinants qnrA, qnrB, and qnrS among clinical isolates of Enterobacteriaceae in a Korean hospital” (2008).
≈ marks a conversion by molar mass, not a printed value.

What was measured:
Type in all cases: functional
Escherichia coli [1] = test: Antibacterial activity against rifampin resistant Escherichia coli RG488 receiving Klebsiella pneumoniae qnrB4 by agar dilution method
Escherichia coli [2] = test: Antibacterial activity against rifampin resistant Escherichia coli RG488 receiving Klebsiella pneumoniae qnrS1 by agar dilution method
Escherichia coli [3] = test: Antibacterial activity against Escherichia coli RG488 by agar dilution method
Escherichia coli [4] = test: Antibacterial activity against Escherichia coli J53 by agar dilution method
Escherichia coli [5] = test: Antibacterial activity against rifampin resistant Escherichia coli RG488 receiving Escherichia coli qnrB4 by agar dilution method
Escherichia coli [6] = test: Antibacterial activity against rifampin resistant Escherichia coli RG488 receiving Klebsiella pneumoniae qnrB6 by agar dilution method
Escherichia coli [7] = test: Antibacterial activity against rifampin resistant Escherichia coli RG488 receiving Enterobacter cloacae qnrB4 by agar dilution method

Row | SMILES | MIC90 (Escherichia coli [1]) [µg/mL] | MIC90 (Escherichia coli [2]) [µg/mL] | MIC90 (Escherichia coli [3]) [µg/mL] | MIC90 (Escherichia coli [4]) [µg/mL] | MIC90 (Escherichia coli [5]) [µg/mL] | MIC90 (Escherichia coli [6]) [µg/mL] | MIC90 (Escherichia coli [7]) [µg/mL]
1 | O=C(O)c1cn(C2CC2)c2cc(N3CCNCC3)c(F)cc2c1=O [CIPROFLOXACIN] | 0.125 (≈ 0.377 µM) | 1 (≈ 3.02 µM) | 0.03 (≈ 0.0905 µM) | 0.015 (≈ 0.0453 µM) |  |  | 
2 | CCn1cc(C(=O)O)c(=O)c2ccc(C)nc21 [NALIDIXIC ACID] | 8 (≈ 34.4 µM) | 32 (≈ 138 µM) | 4 (≈ 17.2 µM) | 4 (≈ 17.2 µM) | 16 (≈ 68.9 µM) | 16 (≈ 68.9 µM) | 8 (≈ 34.4 µM)
